Data taken from patent US11773132B2, “Cyclic di-nucleotides as stimulator of interferon genes modulators” (Beijing Xuanyi PharmaSciences Co., Ltd., priority 2017, dated 2023).

Target: T1, Human STING (Homo sapiens, UniProt Q86WV6, G230A/H232R/R293Q/R71H)
T1 construct: host or cells: THP1-Dual cells (human monocytic reporter line)
Assay: THP1-Dual cell assay, IRF pathway reporter luminescence readout (QUANTI-Luc)
Type: cell-based
Details: THP1-Dual cells, 24 h, 30 μM, Table 2
Procedure: STING pathway activation by the compounds described herein was measured using THP-1 dual cells. These cells are THP1 monocytes that have been modified to be reporters for the IRF pathway, which is activated by STING agonists in these cells.
THP1-Dual cells (obtained from Invivogen) are maintained in growth medium with 100 ug/ml of Zeocin and 10 ug/ml of blasticidin at 37° C., 5% CO2, the cells were passaged every 3 days by inoculating 7×10^5 cells per ml and centrifuged at 1000 rpm for 5 min. Supernatant was removed and THP-1 Dual cells were re-suspended at 5×10^5 cells/ml in fresh pre-warmed growth medium.
[…]. 50 ul of Cell suspension (about 2.5×10^4 cells per well) was added in 384-well plate, which was incubated for 24 hours at 37° C., 5% CO2. QUANTI-Luc was prepared and used following the manufacturer's instructions, 5×10^3 cells per well were seeded in 40 μl medium and incubated overnight. Luminometer was set with the following parameters: 50u of injection, end-point measurement with a 4 second start time and 0.1 second reading time. 10 ul of THP-1 Dual cell culture medium per well was added into a 96-well white (opaque) plate, luminescence was measured and calculated.

T1 sequence (Q86WV6 whole entry R71H/G230A/H232R/R293Q): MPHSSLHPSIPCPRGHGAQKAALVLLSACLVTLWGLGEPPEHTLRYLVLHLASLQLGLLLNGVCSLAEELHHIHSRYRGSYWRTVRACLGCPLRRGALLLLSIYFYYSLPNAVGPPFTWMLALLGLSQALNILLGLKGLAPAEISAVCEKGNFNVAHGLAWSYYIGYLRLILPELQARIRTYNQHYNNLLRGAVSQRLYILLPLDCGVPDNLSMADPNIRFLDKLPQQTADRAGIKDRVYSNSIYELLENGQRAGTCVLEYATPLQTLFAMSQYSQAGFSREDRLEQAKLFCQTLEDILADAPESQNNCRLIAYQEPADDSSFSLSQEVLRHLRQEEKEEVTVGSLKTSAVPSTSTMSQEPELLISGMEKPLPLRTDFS

| SMILES | Readout Average | Readout n = 1 | Readout n = 2 |
| --- | --- | --- | --- |
| BP1(=O)OC[C@H]2O[C@@H](n3cnc4c(NCc5ccccc5)ncnc43)[C@H](OP(=O)(S)OC[C@H]3O[C@@H](n4cnc5c(NCc6ccccc6)ncnc54)[C@H](O)[C@@H]3O1)[C@@H]2O (single isomer, unassigned) [Compound D4] | 510240 | 534040 | 486440 |
| BP1(=O)OC[C@H]2O[C@@H](n3cnc4c(NCc5ccccc5)ncnc43)[C@H](OP(=O)(S)OC[C@H]3O[C@@H](n4cnc5c(NCc6ccccc6)ncnc54)[C@H](O)[C@@H]3O1)[C@@H]2O (single isomer, unassigned) [Compound D2] | 23960 | 18350 | 29570 |
| BP1(=O)OC[C@H]2O[C@@H](n3cnc4c(NCc5ccccc5)ncnc43)[C@H](OP(=O)(S)OC[C@H]3O[C@@H](n4cnc5c(NCc6ccccc6)ncnc54)[C@H](O)[C@@H]3O1)[C@@H]2O (single isomer, unassigned) [Compound D3] | 273875 | 289010 | 258740 |
| BP1(=O)OC[C@H]2O[C@@H](n3cnc4c(NCc5ccccc5)ncnc43)[C@H](OP(=O)(S)OC[C@H]3O[C@@H](n4cnc5c(NCc6ccccc6)ncnc54)[C@H](O)[C@@H]3O1)[C@@H]2O (single isomer, unassigned) [Compound D1] | 22040 | 22420 | 21660 |
